Reference: patent US11780826B2 (Amgen Inc., priority 2017, dated 2023)

System: Bovine cardiac myofibrils
Experiment: In vitro model of dose-dependent myofibril ATPase modulation (AC1.4, pyruvate kinase/lactate dehydrogenase-coupled ATPase assay at pCa25)
Type: biochemical
Settings: concentration at which ATPase activity was 1.4-fold higher than the bottom of the dose curve, mean of a minimum of two independent tests
Summary of the method: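 ATP turnover tracked as NADH absorbance loss at 340 nm, coupled via pyruvate kinase/lactate dehydrogenase, with 1 mM ATP, 2 mM MgCl2 and 12 mM K-PIPES at pH 6.80 (22° C) under EGTA/CaCl2 calcium buffering. Substrate was detergent-treated bovine cardiac myofibrils; 4-parameter curve fit, AC1.4 averaged over at least two runs.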

| Compound | AC1.4 |
| --- | --- |
| N#CC1CN(S(=O)(=O)c2cccc(C(=O)N3CCc4ccccc4C3C(=O)NCc3ccc(C(F)(F)F)cc3)c2)C1 (centres unmarked) [Example 324, 2-(3-((3-cyanoazetidin-1-yl)sulfonyl)benzoyl)-N-(4-(trifluoromethyl)benzyl)-1,2,3,4-tetrahydroisoquinoline-1-carboxamide] | 0.8782 µM |
| CS(=O)(=O)c1ccnc(C(=O)N2CCC[C@@H]2C(=O)N[C@@H](c2cc(F)c(Cl)cc2F)C2CC2)c1 [Example 222, N-((R)-(4-chloro-2,5-difluorophenyl)(cyclopropyl)methyl)-1-((4-(methylsulfonyl)-2-pyridinyl)carbonyl)-D-prolinamide] | 0.4825 µM |
| N#CC1CN(S(=O)(=O)c2cccc(C(=O)N3c4ccccc4CC3C(=O)NCc3ccc(C(F)(F)F)cc3)c2)C1 (racemic) [Example 481, (2R)-1-((3-((3-cyano-1-azetidinyl)sulfonyl)phenyl)carbonyl)-N-(4-(trifluoromethyl)benzyl)-2,3-dihydro-1H-indole-2-carboxamide and (2S)-1-((3-((3-cyano-1-azetidinyl)sulfonyl)phenyl)carbonyl)-N-(4-(trifluoromethyl)benzyl)-2,3-dihydro-1H-indole-2-carboxamide] | 2.157 µM |
| COC[C@H](NC(=O)[C@H]1CCCN1C(=O)[C@H]1CCCN(S(=O)(=O)N2CC(C#N)C2)C1)c1cccc(C(F)(F)F)c1 [Example 388, 1-(((3S)-1-((3-cyano-1-azetidinyl)sulfonyl)-3-piperidinyl)carbonyl)-N-((1R)-2-methoxy-1-(3-(trifluoromethyl)phenyl)ethyl)-D-prolinamide,1-(((3S)-1-((3-cyano-1-azetidinyl)sulfonyl)-3-piperidinyl)carbonyl)-N-((1S)-2-methoxy-1-(3-(trifluoromethyl)phenyl)ethyl)-D-prolinamide] | 1.3405 µM |
| N#CC1CN(S(=O)(=O)N2CCC[C@H](C(=O)N3CCC[C@@H]3C(=O)NCc3cccc(F)c3)C2)C1 [Example 496, 1-(((3S)-1-((3-cyano-1-azetidinyl)sulfonyl)-3-piperidinyl)carbonyl)-N-(3-fluorobenzyl)-D-prolinamide] | 2.291 µM |
| CON(C)S(=O)(=O)c1cccc(C(=O)N2CCC[C@@H]2C(=O)NCc2ccc(C(F)(F)F)cc2)c1 [Example 649, 1-(3-(methoxy(methyl)sulfamoyl)benzoyl)-N-(4-(trifluoromethyl)benzyl)-D-prolinamide] | 4.4365 µM |
| N#CC1CN(S(=O)(=O)N2CCC[C@H](C(=O)N3CCC[C@@H]3C(=O)NCc3ccc(Cl)cc3Cl)C2)C1 [Example 99, 1-(((3S)-1-((3-cyano-1-azetidinyl)sulfonyl)-3-piperidinyl)carbonyl)-N-(2,4-dichlorobenzyl)-D-prolinamide] | 0.1484 µM |
| Cc1cc(CNC(=O)[C@H]2CCCN2C(=O)[C@H]2CCCN(S(=O)(=O)N3CC(C#N)C3)C2)cc(C)c1F [Example 445, 1-(((3S)-1-((3-cyano-1-azetidinyl)sulfonyl)-3-piperidinyl)carbonyl)-N-(4-fluoro-3,5-dimethylbenzyl)-D-prolinamide] | 1.823 µM |
| N#CC1CN(S(=O)(=O)c2cccc(C(=O)N3CCC[C@@H]3C(=O)NCc3cccc(C(F)(F)F)n3)c2)C1 [Example 655, 1-((3-((3-cyano-1-azetidinyl)sulfonyl)phenyl)carbonyl)-N-((6-(trifluoromethyl)-2-pyridinyl)methyl)-D-prolinamide] | 4.5443 µM |
| C[C@@H](NC(=O)[C@H]1CC(F)(F)CN1C(=O)c1cccc(S(=O)(=O)N2CC(C#N)C2)c1)c1ccc(C(F)(F)F)cc1 [Example 6, 1-((3-((3-cyano-1-azetidinyl)sulfonyl)phenyl)carbonyl)-4,4-difluoro-N-((1R)-1-(4-(trifluoromethyl)phenyl)ethyl)-D-prolinamide] | 0.0171 µM |
| CC(NC(=O)[C@H]1CCCN1C(=O)[C@H]1CCCN(S(=O)(=O)N2CC(C#N)C2)C1)c1cccc(F)c1F (stereo partly drawn) [Example 763, (2R)-1-((S)-1-((3-cyanoazetidin-1-yl)sulfonyl)piperidine-3-carbonyl)-N-(1-(2,3-difluorophenyl)ethyl)pyrrolidine-2-carboxamide] | 7.879 µM |
| CC1(C#N)CN(S(=O)(=O)N2CCC[C@H](C(=O)N3CCC[C@@H]3C(=O)NCc3ccc(C(F)(F)F)cc3)C2)C1 [Example 156, 1-(((3S)-1-((3-cyano-3-methyl-1-azetidinyl)sulfonyl)-3-piperidinyl)carbonyl)-N-(4-(trifluoromethyl)benzyl)-D-prolinamide] | 0.2727 µM |
| NS(=O)(=O)c1cc(C(=O)N2CCC[C@@H]2C(=O)N[C@@H](c2ccc(C(F)(F)F)cc2F)C2CC2)c(Cl)cc1F [Example 777, 1-(2-chloro-4-fluoro-5-sulfamoylbenzoyl)-N-((R)-cyclopropyl(2-fluoro-4-(trifluoromethyl)phenyl)methyl)-D-prolinamide] | 8.3805 µM |
| CN(C)S(=O)(=O)N1CCC[C@H](C(=O)N2CCC[C@@H]2C(=O)NCc2ccc(C(F)(F)F)cc2)C1 [Example 744, 1-(((3S)-1-(dimethylsulfamoyl)-3-piperidinyl)carbonyl)-N-(4-(trifluoromethyl)benzyl)-D-prolinamide] | 7.232 µM |
| Cc1cc(C(=O)N2[C@@H](C(=O)N[C@@H](c3cc(F)c(C(F)(F)F)cc3F)C3CC3)C[C@H]3C[C@H]32)ccn1 [Example 717, (1R,3R,5R)-N-((R)-cyclopropyl(2,5-difluoro-4-(trifluoromethyl)phenyl)methyl)-2-((2-methyl-4-pyridinyl)carbonyl)-2-azabicyclo[3.1.0]hexane-3-carboxamide] | 6.259 µM |
| N#CC1CN(S(=O)(=O)N2CCC[C@H](C(=O)N3CCC[C@@H]3C(=O)NCc3cccc(Cl)c3F)C2)C1 [Example 406, N-(3-chloro-2-fluorobenzyl)-1-(((3S)-1-((3-cyano-1-azetidinyl)sulfonyl)-3-piperidinyl)carbonyl)-D-prolinamide] | 1.4675 µM |
| N#C[C@H]1C[C@H](S(=O)(=O)N2CCC[C@H](C(=O)N3CCC[C@@H]3C(=O)NCc3ccc(C(F)(F)F)cc3)C2)C1 [Example 587, 1-(((3S)-1-((trans-3-cyanocyclobutyl)sulfonyl)-3-piperidinyl)carbonyl)-N-(4-(trifluoromethyl)benzyl)-D-prolinamide] | 3.4385 µM |
| O=C(NCc1ccc(C(F)(F)F)cc1)[C@H]1CCCN1C(=O)c1cccc(S(=O)(=O)N2CC3(COC3)C2)c1 [Example 329, 1-((3-(2-oxa-6-azaspiro[3.3]hept-6-ylsulfonyl)phenyl)carbonyl)-N-(4-(trifluoromethyl)benzyl)-D-prolinamide] | 0.8921 µM |
| CS(=O)(=O)c1cccc(C(=O)N2CC[C@@H](F)[C@@H]2C(=O)N[C@@H](c2ccc(C(F)(F)F)cc2F)C2CC2)c1 [Example 589, (3R)-N-((R)-cyclopropyl(2-fluoro-4-(trifluoromethyl)phenyl)methyl)-3-fluoro-1-(3-(methylsulfonyl)benzoyl)-D-prolinamide] | 2.881 µM |
| CS(=O)(=O)c1cncc(C(=O)N2[C@@H](C(=O)N[C@@H](c3cc(F)c(Cl)cc3F)C(F)F)C[C@H]3C[C@H]32)c1 [Example 817, (1R,3R,5R)-N-((S)-1-(4-chloro-2,5-difluorophenyl)-2,2-difluoroethyl)-2-(5-(methylsulfonyl)nicotinoyl)-2-azabicyclo[3.1.0]hexane-3-carboxamide] | 9.115 µM |
| CC(C)(C)c1cc(C(=O)N2[C@@H](C(=O)N[C@@H](c3ccc(Cl)cc3F)C3COC3)C[C@H]3C[C@H]32)ccn1 [Example 738, (1R,3R,5R)-N-((R)-(4-chloro-2-fluorophenyl)(3-oxetanyl)methyl)-2-((2-(2-methyl-2-propanyl)-4-pyridinyl)carbonyl)-2-azabicyclo[3.1.0]hexane-3-carboxamide] | 7.0545 µM |
| CS(=O)(=O)c1cccc(C(=O)N2[C@@H](C(=O)N[C@@H](c3ccc(Cl)c(F)c3)C3CC3)C[C@H]3C[C@H]32)c1 [Example 485, (1R,3R,5R)-N-((R)-(4-chloro-3-fluorophenyl)(cyclopropyl)methyl)-2-(3-(methylsulfonyl)benzoyl)-2-azabicyclo[3.1.0]hexane-3-carboxamide] | 2.0445 µM |
| N#CC1CN(S(=O)(=O)N2CC[C@H](C(=O)N3CCC[C@@H]3C(=O)NCc3ccc(C(F)(F)F)cc3)C2)C1 [Example 648, 1-(((3S)-1-((3-cyano-1-azetidinyl)sulfonyl)-3-pyrrolidinyl)carbonyl)-N-(4-(trifluoromethyl)benzyl)-D-prolinamide] | 4.421 µM |
| COc1ccc(C(C)NC(=O)[C@H]2CCCN2C(=O)[C@H]2CCCN(S(=O)(=O)N3CC(C#N)C3)C2)cc1F (stereo partly drawn) [Example 585, 1-(((3S)-1-((3-cyano-1-azetidinyl)sulfonyl)-3-piperidinyl)carbonyl)-N-((1R)-1-(3-fluoro-4-methoxyphenyl)ethyl)-D-prolinamide,1-(((3S)-1-((3-cyano-1-azetidinyl)sulfonyl)-3-piperidinyl)carbonyl)-N-((1S)-1-(3-fluoro-4-methoxyphenyl)ethyl)-D-prolinamide] | 3.413 µM |
| CS(=O)(=O)c1cc(C(=O)N2[C@@H](C(=O)N[C@@H](c3ccc(C(F)(F)F)c(F)c3)C3CC3)C[C@H]3C[C@H]32)ccn1 [Example 665, (1R,3R,5R)-N-((R)-cyclopropyl(3-fluoro-4-(trifluoromethyl)phenyl)methyl)-2-((2-(methylsulfonyl)-4-pyridinyl)carbonyl)-2-azabicyclo[3.1.0]hexane-3-carboxamide] | 4.554 µM |
| N#CC1CN(S(=O)(=O)c2cccc(C(=O)N3CCC[C@@H]3C(=O)NCc3cnc(C(F)(F)F)nc3)c2)C1 [Example 136, 1-((3-((3-cyano-1-azetidinyl)sulfonyl)phenyl)carbonyl)-N-((2-(trifluoromethyl)-5-pyrimidinyl)methyl)-D-prolinamide] | 0.2235 µM |
